These results are taken from article PMC4008261, “Rewiring of regenerated axons by combining treadmill training with semaphorin3A inhibition” (Molecular Brain, 2014).

The structures appear in SMILES notation.

Assay [1] deals with Transcription response, NF-kB. In words: Pharmacological profile: transcription response. In kind it is cell-based. The text has this:
(§1) Table 1 Pharmacological profile of SM-345431 (part 1) | column: IC50 (μm)

The subject of assay [2] is Transcription response, NF-AT. In words: Pharmacological profile: transcription response. Type of assay: cell-based.
Text: as §1

The subject of assay [3] is Mediator release, IFN-gamma. Briefly: Pharmacological profile: mediator release. Type of assay: cell-based.
Text: as §1

In a further assay the test system is Mediator release, IL-10. Briefly: Pharmacological profile: mediator release. In kind it is cell-based.
Text: as §1

The subject of a further assay is SCT adult rats. Briefly: Axonal regeneration after SCT (GAP43, 5-HT/GFAP immunostaining, BDA tracing). Type of assay: in vivo, rat. The conditions noted are these: for number of GAP43 axons versus control: especially 1 mm caudal to the injury epicenter. The procedure:
Rats were randomly divided into the following three experimental groups: 1) untrained + placebo, 2) untrained + SM-345431 and 3) trained + SM-345431. SCT was performed, and SM-345431 or placebo was administered at the lesion site via the newly developed DDS, which is described in detail below. Starting 1 week post-injury, treadmill training commenced with a BSS. Kinematic tests were performed monthly for 3 months after SCT using a rodent robotic device (Rodent robot 3000, Robomedica Inc.) that primarily assessed the performance of plantar stepping on a treadmill. Treadmill training was continued throughout the experimental period.
A total of 53 adult female Sprague-Dawley rats (200-250 g, 10-12 weeks old) were used in this study (3 rats died during the experimental period and were excluded from the statistical analysis). All procedures were approved by the experimental animal care committee of Keio University, School of Medicine and Murayama Medical Center (approval #12-8). All rats were anesthetized with an intraperitoneal injection of ketamine (100 mg/kg)/xylazine (10 mg/kg). The spinal cord at the level of the T10 lamina was exposed by T10 laminectomy, and the dorsal dura mater was opened. The exposed spinal cord was cut along the inner edge of the vertebra with a sharp micro-scissor. Two more cuts were made at the gap of the transected spinal cord by a scalpel to ensure total transection. SM-345431 or placebo was administered to the transected site via the newly developed DDS as described in detail below (Figure 1G-I). After these procedures, the back muscles and skin were closed. Rats were kept warm in an incubator (37°C) after surgery. To prevent dehydration in the rats, 10 ml of saline was subcutaneously injected daily until day 7. Ampicillin (0.4 g/kg) was also injected intramuscularly daily to prevent infection until day 7. The bladder was evacuated manually until autonomous emptying of the bladder was achieved. The re-transection procedure was performed at the same level as the primary SCT (15 rats total; 5 rats from each group). Kinematic data were recorded using similar procedures prior to re-transection surgery (on the same day) and on the day following re-transection surgery. For CST tracing, 10% BDA was injected as follows. Nine weeks after SM-345431 or placebo administration, BDA (10000 MW, Molecular Probes) was injected into six different sites of the sensorimotor cortices of the rats under general anesthesia (site 1: 2.0 mm lateral, 0 mm to bregma; site 2: 2.0 mm lateral, 2 mm posterior to bregma; site 3: 2.0 mm lateral, 4 mm posterior to bregma; site 4: 4 mm lateral, 0 mm to bregma; site 5: 4 mm lateral, 2 mm posterior to bregma and site 6: 4 mm lateral, 4 mm posterior to bregma). For each site, injections were performed at two different depths (1.2 mm and 1.6 mm), and 3 μl of 10% BDA was injected at a rate of 0.15 μl/min using a micro-injector. Three weeks after the BDA injection, rats were sacrificed and used for immunohistochemistry.
A novel matrix silicone preparation was developed to allow continuous drug delivery at the site of injury. The amount of drug released from this matrix silicone preparation in vitro was measured as described in Figure 1. Matrix silicone sheets (0.3 mm thick) containing SM-345431 were trimmed into 3-mm-square pieces to fit into the opened dura. After SCT, one piece of silicone sheet was placed on the transected spinal cord gap so that it could act on the spinal cord directly.
Twelve weeks after SCT, rats were deeply anaesthetized by an intraperitoneal injection of 14% chloral hydrate and then perfused intracardially with 4% paraformaldehyde (PFA) in 0.1 M phosphate-buffered saline (PBS). The spinal cord tissues were dissected and post-fixed in 4% PFA (24 h) and placed in 10% sucrose in 0.1 M PBS (24 h) followed by 30% sucrose in 0.1 M PBS (24 h). All the rats other than 3 rats died during the experimental period were used for the histological analysis. […]

Where [4] appears, read: SM-345431 combined with treadmill training.
The mark [5] stands for this setting: SM-345431 via silicone DDS alone.

On to `CC(=O)c1cc2c(=O)c3c(C(=O)O)c(O)c(O)cc3oc2c(C(C)=O)c1-c1coc2cc(O)c(O)c(C(=O)O)c2c1=O` [SM-345431, Vinaxanthone], for which the IC50 in assay [1] was greater than 10 µM; in assay [2], greater than 10 µM; in assay [3], greater than 10 µM; with Mediator release, IL-10 it was greater than 10 µM. Also, the “5-HT-positive axons penetrating the GFAP-negative scar tissue versus control” value in the assay with SCT adult rats (setting [4]) and with SCT adult rats (setting [5]) was “significantly more 5-HT-positive axons penetrated the GFAP-negative scar tissue area” each time. The “CST axon regeneration (BDA tracing)” value with SCT adult rats (setting [4]) is “no clear CST regeneration beyond the lesion epicenter was observed”; in the assay with SCT adult rats (setting [5]), “no obvious CST regeneration beyond the lesion epicenter was observed”. In addition, the “number of GAP43 axons versus control” value with SCT adult rats (setting [4]) and in the assay with SCT adult rats (setting [5]) was “significantly increased” in each case.
